One assay has as its target T1, human MMP-8 (Homo sapiens, UniProt P22894).
T1 construct: purchased Calbiochem
As to the kind of experiment: MMP enzyme inhibition assay, MMP-8. It is filed as biochemical. As to conditions: pH 7.5, 37° C., 1 hour.

In assay [1] the test system is S. aureus 8325-4. As to the kind of experiment: S. aureus growth by turbidometry in micro-titre plates. The assay is classed as cell-based, Staphylococcus aureus. As to conditions: for inhibition at 100 µM: Staphylococcus aureus, 83254, growth inhibition, overnight, absorbance 620 nm, read-out: Inhibition at 0.1 mM. As for the experimental part: Tryptic soy broth (0.18 ml) containing S. aureus 8325-4 (approximately 10^5 cells) was mixed with 20 μl 20% (v/v) DMSO vehicle±compound in the wells of a flat-bottomed clear polystyrene 96-well micro-titre plate. The plate was incubated overnight at 37° C./220 rpm and the absorbance measured at 620 nm the following day.

A further assay has as its target T2, staphopain A (Staphylococcus aureus, UniProt P81297).
T2 construct: purchased BioCentrum Ltd
As to the kind of experiment: Selectivity profile, staphopain A. The assay is classed as biochemical. The note with it: read-out: inhibition at 0.1 mM, Staphopain A. On the procedure:
(§1) Inhibitory activity was tested in reaction mixtures (0.1 ml) containing 2% (v/v) DMSO vehicle±compound plus additions as follows. V8 protease: 90 mM MOPS (sodium) buffer pH 7.0, […] calcium chloride, 0.045% Brij 35, 10 μM Mca-Leu-Glu-Val-Asp-Gly-Trp-Lys(Dnp)-amide (Bachem) and V8 (BioCentrum Ltd; 30 ng). Staphopain A and B: 90 mM MOPS (sodium) buffer pH 7.0, 1.8 mM cysteine-HCl (pH-adjusted with NaOH), 0.045% Brij 35, 0.1 mM Z-Phe-Arg-AMC hydrochloride (Bachem) and staphopain A or B (BioCentrum Ltd; 30 ng). Human kallikrein 5: 0.1M sodium phosphate buffer pH 8.0, 0.045% Brij 35, 0.1 mM Boc-Val-Pro-Arg-AMC (Sigma) and recombinant human kallikrein 5 (R&D Systems Inc; 6 ng). Human kallikrein 7: 72 mM Tris-HCl pH 8.0, 0.033% Brij 35, 1.2 mM S-2586 (Chromogenix Instrumentation Laboratory SpA) and recombinant human kallikrein 7 (R&D Systems Inc; 0.6 μg) that had been thermolysin-activated according to the manufacturer's instructions. Human angiotensin-converting enzyme (ACE): 45 mM MES (sodium) buffer pH 6.5, 0.045% Brij 35, 10 μM Mca-[…]Dnp)-OH(R&D Systems Inc) and recombinant human ACE (R&D Systems Inc; 1.3 ng). Human cathepsin D: 0.1M sodium acetate buffer pH 3.5, 0.2M sodium chloride, 0.045% Brij 35, 10 μM Mca-Pro-Leu-Gly-Leu-Dap(Dnp)-Ala-Arg-amide (Bachem) and recombinant human cathepsin D (R&D Systems Inc; 8 ng) activated according to the manufacturer's instructions. […]

Assay [2] addresses T3, purified aureolysin type II (Staphylococcus aureus, UniProt P81177).
T3 sequence (P81177 1-509): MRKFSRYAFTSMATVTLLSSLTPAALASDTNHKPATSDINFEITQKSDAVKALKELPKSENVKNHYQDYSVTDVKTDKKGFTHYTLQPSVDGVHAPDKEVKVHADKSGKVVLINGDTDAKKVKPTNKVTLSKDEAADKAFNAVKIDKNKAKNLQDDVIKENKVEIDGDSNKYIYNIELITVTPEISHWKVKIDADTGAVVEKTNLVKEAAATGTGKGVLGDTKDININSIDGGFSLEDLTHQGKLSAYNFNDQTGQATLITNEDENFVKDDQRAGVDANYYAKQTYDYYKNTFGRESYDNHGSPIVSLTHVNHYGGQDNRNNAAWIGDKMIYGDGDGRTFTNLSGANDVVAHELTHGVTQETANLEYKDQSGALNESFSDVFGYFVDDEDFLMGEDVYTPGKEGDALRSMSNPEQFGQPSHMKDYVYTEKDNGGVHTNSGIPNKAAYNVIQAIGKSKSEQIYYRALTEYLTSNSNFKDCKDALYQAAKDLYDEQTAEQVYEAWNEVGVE
As to the kind of experiment: Aureolysin enzyme inhibition assay, type II. The assay is classed as biochemical. As to conditions: pH 6.8, 37° C., 1 hour; read-out: IC50 value Aureolysin type II.

Assay [3] deals with S. aureus 8325-4. The assay can be described thus: S. aureus viability, viable cell counts. It is filed as cell-based, Staphylococcus aureus. The note with it: 50 μM compound; 16 h at 37° C. As for the experimental part: Brain heart infusion medium (5 ml; Becton Dickinson and Co.) containing 10% skimmed milk and 1% (v/v) DMSO vehicle ±50 μM compound was inoculated with S. aureus 8325-4 (approximately 10^7 cells in tryptic soy broth) and incubated for 16 h at 37° C./220 rpm. Duplicate samples (0.1 ml) were then removed from each culture, diluted into PBS, spread onto brain heart infusion agar (1.5%) and incubated at 37° C.

Assay [4] deals with T4, metalloprotease (aureolysin) activity in Staphylococcus aureus 8325-4 culture supernatants (Staphylococcus aureus, UniProt P81177).
T4 construct: 4 μl S. aureus culture supernatant; endogenous in cells; host or cells: Staphylococcus aureus 8325-4 (culture supernatant)
The assay can be described thus: Metalloprotease activity in S. aureus culture supernatants. It is filed as biochemical. On the procedure: The culture was then centrifuged to remove the cells and the supernatant stored at −70° C. for subsequent use. […] Activity was expressed as the rate of increase in fluorescence as a function of time.

For another assay, the target named is T5, recombinant human ADAM17 (Homo sapiens, UniProt P78536).
T5 construct: purchased R&D Systems Inc
As to the kind of experiment: Selectivity profile, ADAM17. It is filed as biochemical.

In another assay the target is T6, V8 protease (Staphylococcus aureus, UniProt P0C1U8).
T6 construct: purchased BioCentrum Ltd
The assay can be described thus: Selectivity profile, V8 protease. The assay is classed as biochemical. As to conditions: read-out: inhibition at 0.1 mM, V8 protease. As for the experimental part: as §1

The target in a further assay is T7, human MMP-1 (Homo sapiens, UniProt P03956).
T7 construct: purchased Calbiochem
T7 sequence (P03956 100-469): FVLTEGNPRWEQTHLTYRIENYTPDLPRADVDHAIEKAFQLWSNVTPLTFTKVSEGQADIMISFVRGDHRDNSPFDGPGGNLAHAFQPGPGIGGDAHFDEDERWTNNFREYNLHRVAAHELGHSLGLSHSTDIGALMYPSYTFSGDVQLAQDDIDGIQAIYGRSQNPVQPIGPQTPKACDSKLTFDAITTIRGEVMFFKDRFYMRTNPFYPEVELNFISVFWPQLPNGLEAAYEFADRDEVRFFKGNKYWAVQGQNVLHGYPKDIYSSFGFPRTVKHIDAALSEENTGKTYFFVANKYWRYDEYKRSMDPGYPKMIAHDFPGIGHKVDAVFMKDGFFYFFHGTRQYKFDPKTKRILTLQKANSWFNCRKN
The assay can be described thus: MMP enzyme inhibition assay, MMP-1. The note with it: pH 7.5, 37° C., 1 hour. The assay is classed as biochemical.

T6 sequence (P0C1U8 69-336): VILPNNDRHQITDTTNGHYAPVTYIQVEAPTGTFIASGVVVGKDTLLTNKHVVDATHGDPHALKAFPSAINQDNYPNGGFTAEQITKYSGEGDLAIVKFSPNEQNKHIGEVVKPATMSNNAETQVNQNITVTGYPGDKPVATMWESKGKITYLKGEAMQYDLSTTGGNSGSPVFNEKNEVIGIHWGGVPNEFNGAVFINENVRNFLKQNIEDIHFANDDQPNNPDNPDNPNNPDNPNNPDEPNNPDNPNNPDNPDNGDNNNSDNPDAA
T2 sequence (P81297 215-388): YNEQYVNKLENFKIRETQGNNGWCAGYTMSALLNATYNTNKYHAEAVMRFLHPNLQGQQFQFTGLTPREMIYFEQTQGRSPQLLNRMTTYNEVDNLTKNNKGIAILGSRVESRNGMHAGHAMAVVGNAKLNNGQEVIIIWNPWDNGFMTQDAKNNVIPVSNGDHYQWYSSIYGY
T1 sequence (P22894 101-467): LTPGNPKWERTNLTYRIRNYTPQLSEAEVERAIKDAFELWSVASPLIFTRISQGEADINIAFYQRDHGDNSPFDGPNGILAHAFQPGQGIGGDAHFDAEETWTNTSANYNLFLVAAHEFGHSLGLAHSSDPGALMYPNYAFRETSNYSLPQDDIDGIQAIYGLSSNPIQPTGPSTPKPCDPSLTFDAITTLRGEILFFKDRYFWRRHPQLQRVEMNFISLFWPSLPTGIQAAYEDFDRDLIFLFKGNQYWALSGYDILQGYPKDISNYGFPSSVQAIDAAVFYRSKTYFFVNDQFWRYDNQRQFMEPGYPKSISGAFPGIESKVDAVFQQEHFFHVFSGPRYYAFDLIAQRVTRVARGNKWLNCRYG
T5 sequence (P78536 215-824): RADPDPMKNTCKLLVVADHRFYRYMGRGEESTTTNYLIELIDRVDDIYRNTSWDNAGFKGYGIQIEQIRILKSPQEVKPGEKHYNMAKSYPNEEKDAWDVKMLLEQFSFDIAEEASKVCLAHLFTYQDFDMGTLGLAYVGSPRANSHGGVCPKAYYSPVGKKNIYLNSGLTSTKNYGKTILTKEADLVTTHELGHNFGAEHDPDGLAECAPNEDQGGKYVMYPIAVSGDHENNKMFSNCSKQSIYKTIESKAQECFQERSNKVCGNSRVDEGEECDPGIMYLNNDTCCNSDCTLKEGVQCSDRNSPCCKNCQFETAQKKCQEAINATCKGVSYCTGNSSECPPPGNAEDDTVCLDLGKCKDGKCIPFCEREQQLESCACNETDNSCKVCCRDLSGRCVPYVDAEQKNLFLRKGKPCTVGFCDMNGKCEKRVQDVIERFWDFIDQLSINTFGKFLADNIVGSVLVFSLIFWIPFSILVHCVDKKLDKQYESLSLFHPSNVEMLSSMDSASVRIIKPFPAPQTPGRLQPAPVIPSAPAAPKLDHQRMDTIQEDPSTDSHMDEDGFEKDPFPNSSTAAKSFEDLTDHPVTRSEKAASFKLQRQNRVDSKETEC

The IC50 is the point on the concentration scale where inhibition reaches its midpoint. What is called inhibition is how much of the control response was suppressed. `CNC(=O)[C@@H](NC(=O)[C@@H](CC(=O)NO)CC(C)C)C(C)(C)C` [Compound 11, (R)—N1-((S)-3,3-dimethyl-1-(methylamino)-1-oxobutan-2-yl)-N4-hydroxy-2-isobutylsuccinamide]: the concentration for half-maximal inhibition (IC50) came to 0.0014 µM against human MMP-8; 2.4 µM in assay [2]; 3.7 µM in assay [4]; 0.025 µM at recombinant human ADAM17; 0.0028 µM against human MMP-1. Also, the figures for the inhibition at 100 µM in the assay with S. aureus 8325-4 [1], on staphopain A and at V8 protease were 2%, 5% and 0%, respectively. Moreover, the “anti-bacterial activity (in words)” value in the assay on S. aureus 8325-4 [1] (data in Tables 10 and 11) was “not anti-bacterial”. Also, in the assay on S. aureus 8325-4 [3], the “Viable cell counts, Cells/ml” value was 1.6 × 10^9 Cells/ml.

Consider `CNC(=O)[C@@H](NC(=O)[C@H](CC(=O)NO)CC(C)C)C(C)(C)C` [Compound 12, (S)—N1-((S)-3,3-dimethyl-1-(methylamino)-1-oxobutan-2-yl)-N4-hydroxy-2-isobutylsuccinamide], for which the IC50 is 1.4 µM against human MMP-8; 2.2 µM in assay [2]; 4.3 µM in assay [4]; 79 µM on recombinant human ADAM17; 2.3 µM against human MMP-1. For the same molecule, the inhibition at 100 µM in the assay with S. aureus 8325-4 [1], at staphopain A and on V8 protease was 0% each time. Also, in the assay on S. aureus 8325-4 [3], the “Viable cell counts, Cells/ml” value is given as 1.3 × 10^9 Cells/ml.

The values are drawn from US20070049518A1, “Novel method of treatment of inflammatory skin conditions” (priority 2005, published 2007).
